In patent US7183415B2, “Quinoline compound” (Takeda Pharmaceutical Company Limited, priority 2001, dated 2007) one finds melting point data, which are given here for 14 compounds.

What is called melting point is the temperature of the solid-liquid transition.

The compound `CCc1ccc(-c2ccc(C(=O)Nc3ccc4cc(CN5CCCC5)cnc4c3C)c(F)c2)cc1` [Example 140, 4′-ethyl-3-fluoro-N-[8-methyl-3-(1-pyrrolidinylmethyl)-7-quinolinyl][1,1′-biphenyl]-4-carboxamide] gave a melting point of 178 to 179 °C.
The same measure for `O=C(Nc1ccc2cc(CN3CCCC3)cnc2c1F)c1ccc(-c2ccc(Cl)cc2)cc1` [Example 75, 4′-chloro-N-[8-fluoro-3-(1-pyrrolidinylmethyl)-7-quinolinyl][1,1′-biphenyl]-4-carboxamide]: 206 to 208 °C.
The same measure for `Cc1ccc(-c2ccc(C(=O)Nc3ccc4cc(CN5CCCC5)cnc4c3)cc2)cc1` [Example 5, 4′-methyl-N-[3-(1-pyrrolidinylmethyl)-7-quinolinyl][1,1′-biphenyl]-4-carboxamide]: 206 to 208 °C; for `Cc1c(NC(=O)c2ccc(-c3cc4ccccc4s3)cc2)ccc2cc(CN3CCCC3)cnc12` (hydrate or solvate) [Example 120, 4-(1-benzothien-2-yl)-N-[8-methyl-3-(1-pyrrolidinylmethyl)-7-quinolinyl]benzamide]: 217 to 218 °C.
The same measure for `Cc1c(NC(=O)c2ccc(-c3ccc(C(F)(F)F)cc3)cc2)ccc2cc(CN3CCCC3)cnc12` [Example 101, N-[8-methyl-3-(1-pyrrolidinylmethyl)-7-quinolinyl]-4′-(trifluoromethyl)[1,1′-biphenyl]-4-carboxamide]: 220 to 222 °C; for `O=C(Nc1ccc2cc(CN3CCCC3)cnc2c1)c1ccc(-c2ccccc2)nc1` [Example 7, 6-phenyl-N-[3-(1-pyrrolidinylmethyl)-7-quinolinyl]nicotinamide]: 208 to 210 °C; for `Cc1c(NC(=O)c2ccc(-c3ccc(F)cc3)cc2)ccc2cc(CN(C(C)C)C(C)C)cnc12` [Example 194, N-{3-[(diisopropylamino)methyl]-8-methyl-7-quinolinyl}-4′-fluoro[1,1′-biphenyl]-4-carboxamide]: 179 to 180 °C.
The compound `Cc1cc2cc(CN3CCC(CCCC(N)=O)CC3)cnc2cc1NC(=O)c1ccc(-c2ccc(F)cc2)cc1` [Example 264, N-(3-{[4-(4-amino-4-oxobutyl)-1-piperidinyl]methyl}-6-methyl-7-quinolinyl)-4′-fluoro[1,1′-biphenyl]-4-carboxamide] came in with a melting point of 228 °C.
The same measure for `Cc1cc2cc(CN3CCCC3)cnc2cc1NC(=O)c1ccc(-c2ccsc2)cc1` [Example 223, N-[6-methyl-3-(1-pyrrolidinylmethyl)-7-quinolinyl]-4-thien-3-ylbenzamide]: 187 °C; for `Cc1ccc(-c2ccc(C(=O)Nc3ccc4cc(CN5CCC(C(N)=O)CC5)cnc4c3C)cc2)cc1` [Example 26, 1-[(8-methyl-7-{[(4′-methyl-1,1′-biphenyl-4-yl)carbonyl]amino}-3-quinolinyl)methyl]-4-piperidine carboxamide]: 287 °C (dec.).
As for `Cc1cc2cc(CN3CCCC3)cnc2cc1NC(=O)c1ccc(-c2ccccc2)c(F)c1` [Example 232, 2-fluoro-N-[6-methyl-3-(1-pyrrolidinylmethyl)-7-quinolinyl][1,1′-biphenyl]-4-carboxamide], the figure is 167 to 170 °C; as for `O=C(Nc1ccc2cc(CN3CCCC3)cnc2c1)N1CCC(c2ccc(F)cc2)CC1` [Example 14, 4-(4-fluorophenyl)-N-[3-(1-pyrrolidinylmethyl)-7-quinolinyl]-1-piperidine carboxamide], 239 to 241 °C; as for `Cc1c(NC(=O)c2ccc(C3CCCCC3)cc2)ccc2cc(CN3CCCC3)cnc12` [Example 122, 4-cyclohexyl-N-[8-methyl-3-(1-pyrrolidinylmethyl)-7-quinolinyl]benzamide], 178 to 179 °C.
The same measure for `Cc1c(NC(=O)c2ccc(-c3ccc4c(c3)CCO4)cc2)ccc2cc(CN3CCCC3)cnc12` [Example 113, 4-(2,3-dihydro-1-benzofuran-5-yl)-N-[8-methyl-3-(1-pyrrolidinylmethyl)-7-quinolinyl]benzamide]: 176 to 177 °C.
